Test results reported in US7138361B2, “Herbicidal heterocycles” (E. I. du Pont de Nemours and Company, priority 2000, dated 2006).

Legend:
Format in all cases: in vivo
wild oat (Avena fatua) = assay: Test B postemergence; conditions: 13 to 15 days
How it was run: (§1)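 Seeds were planted and sprayed preemergence with test chemical in a non-phytotoxic solvent mixture containing surfactant; postemergence plants (2 to 18 cm, 1- to 4-leaf stage) received the same formulation. Greenhouse hold 13 to 15 days, then visual rating versus untreated controls on a 0–100 scale (0 no effect, 100 complete control).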

corn (Zea mays) [1] = assay: Test B postemergence; conditions: 13 to 15 days
How it was run: as §1

[2] = test system: barnyardgrass (Echinochloa crus-galli); assay: Test B postemergence; conditions: 13 to 15 days
How it was run: as §1

[3] = test system: wheat (Triticum aestivum); assay: Test B postemergence; conditions: 13 to 15 days
How it was run: as §1

Sunflower = assay: Test C preemergence; conditions: scale 0 to 100, 0 no effect, 100 complete control
Nightshade [4] = assay: Test C preemergence
[5] = test system: lambsquarters (Chenopodium album); assay: Test C preemergence; conditions: for Plant response rating (0 to 100), Lambsquarters: visual evaluation after 12 to 14 days
How it was run: (§2)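 Visual 0–100 rating vs controls (0 = no effect, 100 = complete control) at 12–14 d, greenhouse. Compounds in non-phytotoxic solvent + surfactant; pre: sprayed after seeding; post: 1–4-leaf plants, 2–18 cm.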

corn (Zea mays) [6] = assay: Test C preemergence; conditions: for Plant response rating (0 to 100), Corn: visual evaluation after 12 to 14 days
How it was run: as §2

[7] = test system: woolly cupgrass (Eriochloa villosa); assay: Test C preemergence; conditions: for Plant response rating (0 to 100), Cupgrass, Woolly: visual evaluation after 12 to 14 days
How it was run: as §2

soybean (Glycine max) = assay: Test C preemergence; conditions: for Plant response rating (0 to 100), Soybean: visual evaluation after 12 to 14 days
How it was run: as §2

[8] = test system: johnsongrass (Sorghum halepense); assay: Test C preemergence; conditions: for Plant response rating (0 to 100), Johnsongrass: visual evaluation after 12 to 14 days
How it was run: as §2

[9] = test system: yellow nutsedge (Cyperus esculentus); assay: Test C preemergence; conditions: for Plant response rating (0 to 100), Nutsedge: visual evaluation after 12 to 14 days
How it was run: as §2

kochia (Kochia scoparia) = assay: Test C preemergence; conditions: for Plant response rating (0 to 100), Kochia: visual evaluation after 12 to 14 days
How it was run: as §2

[10] = test system: pigweed (Amaranthus retroflexus); assay: Test C preemergence; conditions: for Plant response rating (0 to 100), Pigweed: visual evaluation after 12 to 14 days
How it was run: as §2

Nightshade [11] = assay: Test C preemergence; conditions: visual evaluation after 12 to 14 days
[12] = test system: duck salad (Heteranthera limosa); assay: Test C flooded paddy test; conditions: for Ducksalad plant response rating: Flooded Paddy, scale 0 to 100, 0 no effect, 100 complete control; for Plant response rating, Ducksalad: flooded paddy test, scale 0 to 100 (0 no effect, 100 complete control)
How it was run: (§3)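 Visual ratings (0 = no effect, 100 = complete control) were made 12–14 days after treatment, relative to greenhouse controls. Plants in the flooded paddy test were rice, smallflower flatsedge, duck salad and barnyardgrass, treated at the 2-leaf stage.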

[13] = test system: barnyardgrass (Echinochloa crus-galli); assay: Test C flooded paddy test; conditions: for Barnyardgrass plant response rating: Flooded Paddy, scale 0 to 100, 0 no effect, 100 complete control; for Plant response rating, Barnyardgrass: flooded paddy test, scale 0 to 100 (0 no effect, 100 complete control)
How it was run: as §3

rice (Oryza saliva) = assay: Test C flooded paddy test; conditions: for Rice plant response rating: Flooded Paddy, scale 0 to 100, 0 no effect, 100 complete control; for Plant response rating, Rice: flooded paddy test, scale 0 to 100 (0 no effect, 100 complete control)
How it was run: as §3

[14] = test system: smallflower flatsedge (Cyperus difformis); assay: Test C flooded paddy test; conditions: for Flatsedge plant response rating: Flooded Paddy, scale 0 to 100, 0 no effect, 100 complete control; for Plant response rating, Flatsedge: flooded paddy test, scale 0 to 100 (0 no effect, 100 complete control)
How it was run: as §3

[15] = Rate 125 g/ha, scale 0 (no effect) to 100 (complete control)
[16] = Rate 500 g/ha, scale 0 to 100, 0 is no effect, 100 is complete control
[17] = Rate 125 g/ha, scale 0 to 100, 0 no effect, 100 complete control
[18] = Rate 62 g/ha, scale 0 to 100, 0 no effect, 100 complete control
[19] = preemergence, Rate 31 g/ha, scale 0 to 100
[20] = preemergence, Rate 125 g/ha, scale 0 to 100, 0 no effect, 100 complete control
[21] = preemergence, Rate 62 g/ha, scale 0 to 100
[22] = preemergence, Rate 250 g/ha, scale 0 to 100, 0 no effect, 100 complete control

CC(C)c1ccn(C2OCN(c3cccc(C(F)(F)F)c3)C2=O)n1 (stereo not drawn) [Compound 27]
Plant response rating, Wild Oat (wild oat (Avena fatua); [15]): 0
Plant response rating, Wild Oat (wild oat (Avena fatua); [16]): 0
Plant response rating, Corn (corn (Zea mays) [1]; [15]): 0
Plant response rating, Corn (corn (Zea mays) [1]; [16]): 10
Plant response rating, Barnyardgrass [2, 15]: 20
Plant response rating, Barnyardgrass [2, 16]: 60
Plant response rating, Wheat [3, 15]: 0
Plant response rating, Wheat [3, 16]: 0
Plant response rating, Sunflower (Sunflower; Rate 125 g/ha): 20
Plant response rating, Nightshade (Nightshade [4]; Rate 31 g/ha, scale 0 to 100): 0
Plant response rating, Nightshade (Nightshade [4]; Rate 62 g/ha; scale 0 to 100, 0 no effect, 100 complete control): 0
Plant response rating, Nightshade (Nightshade [4]; [17]): 0
Plant response rating, Lambsquarters [5, 18]: 100
Plant response rating, Lambsquarters [5, 19]: 100
Plant response rating (0 to 100), Lambsquarters ([5]; preemergence, Rate 250 g/ha): 100
Plant response rating, Lambsquarters [5, 20]: 100
Plant response rating, Corn (corn (Zea mays) [6]; [18]): 20
Plant response rating, Corn (corn (Zea mays) [6]; [19]): 0
Plant response rating (0 to 100), Corn (corn (Zea mays) [6]; preemergence, Rate 250 g/ha): 30
Plant response rating, Corn (corn (Zea mays) [6]; [20]): 20
Plant response rating, Cupgrass, Woolly [7, 18]: 50
Plant response rating, Cupgrass, Woolly [7, 19]: 50
Plant response rating (0 to 100), Cupgrass, Woolly ([7]; preemergence, Rate 250 g/ha): 100
Plant response rating, Cupgrass, Woolly [7, 20]: 80
Plant response rating, Soybean (soybean (Glycine max); [18]): 30
Plant response rating, Soybean (soybean (Glycine max); [19]): 0
Plant response rating (0 to 100), Soybean (soybean (Glycine max); preemergence, Rate 250 g/ha): 50
Plant response rating, Soybean (soybean (Glycine max); [20]): 40
Plant response rating, Johnsongrass [8, 18]: 20
Plant response rating, Johnsongrass [8, 19]: 0
Plant response rating (0 to 100), Johnsongrass ([8]; preemergence, Rate 250 g/ha): 50
Plant response rating, Johnsongrass [8, 20]: 50
Plant response rating, Nutsedge [9, 18]: 60
Plant response rating, Nutsedge [9, 19]: 30
Plant response rating (0 to 100), Nutsedge ([9]; preemergence, Rate 250 g/ha): 80
Plant response rating, Nutsedge [9, 20]: 60
Plant response rating, Kochia (kochia (Kochia scoparia); [18]): 100
Plant response rating, Kochia (kochia (Kochia scoparia); [19]): 0
Plant response rating (0 to 100), Kochia (kochia (Kochia scoparia); preemergence, Rate 250 g/ha): 100
Plant response rating, Kochia (kochia (Kochia scoparia); [20]): 100
Plant response rating, Pigweed [10, 18]: 0
Plant response rating, Pigweed [10, 19]: 100
Plant response rating (0 to 100), Pigweed ([10]; preemergence, Rate 250 g/ha): 100
Plant response rating, Pigweed [10, 20]: 100
Plant response rating (0 to 100), Nightshade (Nightshade [11]; Rate 250 g/ha): 0
Ducksalad plant response rating ([12]; Rate 250 g/ha): 0
Ducksalad plant response rating ([12]; Rate 500 g/ha): 90
Plant response rating, Ducksalad ([12]; Rate 62 g/ha): 0
Plant response rating, Ducksalad ([12]; Rate 125 g/ha): 0
Barnyardgrass plant response rating ([13]; Rate 250 g/ha): 60
Barnyardgrass plant response rating ([13]; Rate 500 g/ha): 70
Plant response rating, Barnyardgrass ([13]; Rate 62 g/ha): 20
Plant response rating, Barnyardgrass ([13]; Rate 125 g/ha): 60
Rice plant response rating (rice (Oryza saliva); Rate 250 g/ha): 40
Rice plant response rating (rice (Oryza saliva); Rate 500 g/ha): 70
Plant response rating, Rice (rice (Oryza saliva); Rate 62 g/ha): 0
Plant response rating, Rice (rice (Oryza saliva); Rate 125 g/ha): 40
Flatsedge plant response rating ([14]; Rate 250 g/ha): 100
Flatsedge plant response rating ([14]; Rate 500 g/ha): 100
Plant response rating, Flatsedge ([14]; Rate 62 g/ha): 90
Plant response rating, Flatsedge ([14]; Rate 125 g/ha): 90

CCCC(C)c1ccn(C2SCN(c3cccc(C(F)(F)F)c3)C2=O)n1 (stereo not drawn) [Compound 92]
Plant response rating, Wild Oat (wild oat (Avena fatua); [16]): 0
Plant response rating, Corn (corn (Zea mays) [1]; [15]): 0
Plant response rating, Corn (corn (Zea mays) [1]; [16]): 10
Plant response rating, Barnyardgrass [2, 15]: 0
Plant response rating, Barnyardgrass [2, 16]: 70
Plant response rating, Wheat [3, 16]: 0
Plant response rating, Sunflower (Sunflower; Rate 250 g/ha): 40
Plant response rating, Nightshade (Nightshade [4]; Rate 62 g/ha, scale 0 to 100): 0
Plant response rating, Nightshade (Nightshade [4]; Rate 125 g/ha; scale 0 to 100, 0 no effect, 100 complete control): 0
Plant response rating, Nightshade (Nightshade [4]; Rate 250 g/ha, scale 0 to 100, 0 no effect, 100 complete control): 20
Plant response rating, Lambsquarters [5, 17]: 100
Plant response rating, Lambsquarters [5, 21]: 80
Plant response rating (0 to 100), Lambsquarters ([5]; preemergence, Rate 500 g/ha): 100
Plant response rating, Lambsquarters [5, 22]: 100
Plant response rating, Corn (corn (Zea mays) [6]; [17]): 10
Plant response rating, Corn (corn (Zea mays) [6]; [21]): 0
Plant response rating (0 to 100), Corn (corn (Zea mays) [6]; preemergence, Rate 500 g/ha): 40
Plant response rating, Corn (corn (Zea mays) [6]; [22]): 30
Plant response rating, Cupgrass, Woolly [7, 17]: 10
Plant response rating, Cupgrass, Woolly [7, 21]: 0
Plant response rating (0 to 100), Cupgrass, Woolly ([7]; preemergence, Rate 500 g/ha): 50
Plant response rating, Cupgrass, Woolly [7, 22]: 50
Plant response rating, Soybean (soybean (Glycine max); [17]): 0
Plant response rating, Soybean (soybean (Glycine max); [21]): 0
Plant response rating (0 to 100), Soybean (soybean (Glycine max); preemergence, Rate 500 g/ha): 100
Plant response rating, Soybean (soybean (Glycine max); [22]): 30
Plant response rating, Johnsongrass [8, 17]: 65
Plant response rating, Johnsongrass [8, 21]: 50
Plant response rating (0 to 100), Johnsongrass ([8]; preemergence, Rate 500 g/ha): 100
Plant response rating, Johnsongrass [8, 22]: 70
Plant response rating, Nutsedge [9, 17]: 0
Plant response rating, Nutsedge [9, 21]: 0
Plant response rating (0 to 100), Nutsedge ([9]; preemergence, Rate 500 g/ha): 0
Plant response rating, Nutsedge [9, 22]: 0
Plant response rating, Kochia (kochia (Kochia scoparia); [17]): 40
Plant response rating, Kochia (kochia (Kochia scoparia); [21]): 0
Plant response rating (0 to 100), Kochia (kochia (Kochia scoparia); preemergence, Rate 500 g/ha): 100
Plant response rating, Kochia (kochia (Kochia scoparia); [22]): 70
Plant response rating, Pigweed [10, 17]: 0
Plant response rating, Pigweed [10, 21]: 0
Plant response rating (0 to 100), Pigweed ([10]; preemergence, Rate 500 g/ha): 50
Plant response rating, Pigweed [10, 22]: 100
Plant response rating (0 to 100), Nightshade (Nightshade [11]; Rate 500 g/ha): 80
Ducksalad plant response rating ([12]; Rate 250 g/ha): 100
Ducksalad plant response rating ([12]; Rate 500 g/ha): 100
Plant response rating, Ducksalad ([12]; Rate 62 g/ha): 80
Plant response rating, Ducksalad ([12]; Rate 125 g/ha): 100
Barnyardgrass plant response rating ([13]; Rate 250 g/ha): 100
Barnyardgrass plant response rating ([13]; Rate 500 g/ha): 100
Plant response rating, Barnyardgrass ([13]; Rate 62 g/ha): 50
Plant response rating, Barnyardgrass ([13]; Rate 125 g/ha): 100
Rice plant response rating (rice (Oryza saliva); Rate 250 g/ha): 30
Rice plant response rating (rice (Oryza saliva); Rate 500 g/ha): 30
Plant response rating, Rice (rice (Oryza saliva); Rate 62 g/ha): 0
Plant response rating, Rice (rice (Oryza saliva); Rate 125 g/ha): 0
Flatsedge plant response rating ([14]; Rate 250 g/ha): 100
Flatsedge plant response rating ([14]; Rate 500 g/ha): 100
Plant response rating, Flatsedge ([14]; Rate 62 g/ha): 90
Plant response rating, Flatsedge ([14]; Rate 125 g/ha): 100
